Consider 63 compounds from patent US20250034170A1, “SMALL MOLECULE MODULATORS OF GLUCOCEREBROSIDASE ACTIVITY AND USES THEREOF” (Vanqua Bio, Inc., priority 2021, published 2025).

In one experiment the target is T1, GCase (Homo sapiens, UniProt P04062).
T1 construct: endogenous in cells; host or cells: HeLa cells
T1 sequence (P04062 40-536): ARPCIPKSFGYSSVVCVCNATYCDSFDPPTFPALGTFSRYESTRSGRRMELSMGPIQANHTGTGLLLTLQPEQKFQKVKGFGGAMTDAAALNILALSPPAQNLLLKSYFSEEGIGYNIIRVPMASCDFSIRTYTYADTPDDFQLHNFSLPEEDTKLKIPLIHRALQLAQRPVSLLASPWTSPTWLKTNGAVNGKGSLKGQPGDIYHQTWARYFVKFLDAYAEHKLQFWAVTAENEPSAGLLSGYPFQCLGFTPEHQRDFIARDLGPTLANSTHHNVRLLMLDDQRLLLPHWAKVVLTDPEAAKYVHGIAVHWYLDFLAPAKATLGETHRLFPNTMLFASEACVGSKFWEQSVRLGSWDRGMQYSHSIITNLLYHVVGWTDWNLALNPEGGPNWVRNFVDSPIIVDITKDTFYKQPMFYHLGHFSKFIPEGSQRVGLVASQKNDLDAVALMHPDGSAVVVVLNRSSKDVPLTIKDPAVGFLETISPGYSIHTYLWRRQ
The experiment in a line: activation of GCase in a live cell PFB assay in HELA cells. The note with it: EC50 given as range classes. Format: cell-based. Here is the method:
Exemplary compounds were evaluated for activation of GCase in a live cell PFB assay in HELA cells (essentially as described in Ysselstein et al., “LRRK2 kinase activity regulates lysosomal glucocerebrosidase in neurons derived from Parkinson's disease patients” Nature Communications (2019) 10:5570). […] EC50 ranges: A: <10 μM; B: >10-50 μM; C: >50-100 μM; D: >100 μM.
In turn, `Cc1ncc(N2CC3(CCN(c4cnc5c(C)nn(CC(F)(F)F)c5n4)C3)C2)c(C(F)(F)F)n1` [Cmpd 606] registered an EC50 of 50 to 100 µM. On the same count and under the same terms, then `Cc1cc(N2CC3(CCN(c4cnc5c(C)nn(CC(F)(F)F)c5n4)C3)C2)nc(C(F)(F)F)n1` [Cmpd 607], with 10 to 50 µM. With `Cc1nc(N2CC3(CCN(c4cnc5c(C)nn(CC(F)(F)F)c5n4)C3)C2)cc(C(F)(F)F)n1` [Cmpd 608], the EC50 is 50 to 100 µM.

For the compound `Cc1nc(N2CCC3(C2)CN(c2cnc4c(C)nn(CC(F)(F)F)c4n2)C3)cc(C(F)(F)F)n1` [Cmpd 609], the EC50 was in the range of 10 to 50 µM. The compound `Cc1nc(N2CC3(CCN(c4cnc5c(C)nn(CC(F)(F)F)c5n4)CC3)C2)cc(C(F)(F)F)n1` [Cmpd 610] had an EC50 of less than 10 µM. Same read-out and setting: then `Cc1nc(N2CCC3(CCN(c4cnc5c(C)nn(CC(F)(F)F)c5n4)CC3)C2)cc(C(F)(F)F)n1` [Cmpd 611], with greater than 100 µM; and `Cc1nc(N2CC3(CCN(c4cc5c(cn4)c(C)nn5CC(F)F)C3)C2)cc(C(F)(F)F)n1` [Cmpd 612], with 50 to 100 µM; and `Cc1nc(N2CC3(CCN(c4cc5c(cn4)c(C)nn5CC(F)F)CC3)C2)cc(C(F)(F)F)n1` [Cmpd 613], with less than 10 µM.

`Cc1nc(N2CC3(CCN(c4cc5c(cn4)c(C)nn5CC(F)F)CC3)CC2=O)cc(C(F)(F)F)n1` [Cmpd 614] came in with an EC50 of 10 to 50 µM. The same measure, in the same setting: the figure for `Cc1nn(CC(F)(F)F)c2nc(N3CCC4(CCN(c5cnc(C(F)(F)F)nc5)C4)C3)ncc12` (stereo not drawn) [Cmpd 615] is 10 to 50 µM. As to `Cc1nc(N2CCC3(CCN(c4ncc5c(C)nn(CC(F)(F)F)c5n4)C3)C2)cc(C(F)(F)F)n1` (stereo not drawn) [Cmpd 616], the EC50 lay within 10 to 50 µM. The compound `Cc1nc(N2CCC3(C2)CN(c2ncc4c(C)nn(CC(F)(F)F)c4n2)C3)cc(C(F)(F)F)n1` [Cmpd 617] showed an EC50 of 10 to 50 µM.

The compound `Cc1nc(N2CC3(CCN(c4ncc5c(C)nn(CC(F)(F)F)c5n4)CC3)C2)cc(C(F)(F)F)n1` [Cmpd 618] yielded an EC50 of 10 to 50 µM. Still for that read-out and setting: then `Cc1nc(N2CCC3(CCN(c4ncc5c(C)nn(CC(F)(F)F)c5n4)CC3)C2)cc(C(F)(F)F)n1` [Cmpd 619], with 10 to 50 µM; and `Cc1ncc(N2CC3(CCN(c4ncc5c(C)nn(CC(F)(F)F)c5n4)C3)C2)c(C(F)(F)F)n1` [Cmpd 620], with 10 to 50 µM; and `Cc1nc(N2CC3(CCN(c4ccc5cnn(CC(F)F)c5n4)C3)C2)cc(C(F)(F)F)n1` [Cmpd 621], with 10 to 50 µM.

Compound `Cc1nc(N2CC3(CCN(c4ccc5c(C)nn(CC(F)F)c5n4)C3)C2)cc(C(F)(F)F)n1` [Cmpd 622] yielded an EC50 of 10 to 50 µM. As to `Cc1nc(N2CC3(CCN(c4ccc5cnn(CC(F)F)c5n4)CC3)C2)cc(C(F)(F)F)n1` [Cmpd 623], the EC50 was less than 10 µM. The same measure, in the same setting: then `Cc1nc(N2CC3(CCN(c4ccc5c(C)nn(CC(F)F)c5n4)CC3)C2)cc(C(F)(F)F)n1` [Cmpd 624], with less than 10 µM; and `Cc1nc(N2CCC3(CCN(c4ccc5cnn(CC(F)F)c5n4)CC3)C2)cc(C(F)(F)F)n1` [Cmpd 625], with less than 10 µM; and `Cc1nc(N2CCC3(CCN(c4ccc5c(C)nn(CC(F)F)c5n4)CC3)C2)cc(C(F)(F)F)n1` [Cmpd 626], with less than 10 µM. On the same count and under the same terms, then `Cc1nc(N2CC3(CCN(c4ccc5cnn(CC(F)F)c5n4)CC3)CC2=O)cc(C(F)(F)F)n1` [Cmpd 627], with less than 10 µM; and `Cc1nc(N2CC3(CCN(c4ccc5c(C)nn(CC(F)F)c5n4)CC3)CC2=O)cc(C(F)(F)F)n1` [Cmpd 628], with less than 10 µM; and `Cc1nc(N2CC3(CCN(c4ncc5cnn(C(C)(C)C)c5n4)C3)C2)cc(C(F)(F)F)n1` [Cmpd 629], with 10 to 50 µM. The same measure, in the same setting: then `Cc1nc(N2CCC3(CCN(c4cc5c(cn4)c(C)nn5CC(F)F)CC3)C2)cc(C(F)(F)F)n1` [Cmpd 630], with 10 to 50 µM. Compound `Cc1nc(N2CC3(CCN(c4cc5c(cn4)cnn5CC(F)F)C3)C2)cc(C(F)(F)F)n1` [Cmpd 631] registered an EC50 of 10 to 50 µM.

Take `Cc1nc(N2CC3(CCN(c4cc5c(cn4)cnn5CC(F)F)CC3)C2)cc(C(F)(F)F)n1` [Cmpd 632]: the EC50 is less than 10 µM. The compound `Cc1nc(N2CCC3(CCN(c4cc5c(cn4)cnn5CC(F)F)CC3)C2)cc(C(F)(F)F)n1` [Cmpd 633] gave an EC50 of less than 10 µM.

Still in this experiment, the particulars now being: activation of GCase, EC50 ranges.
As to `Cc1nc(N2CC3(CCN(c4cc5c(cn4)cnn5CC(F)F)CC3)CC2=O)cc(C(F)(F)F)n1` [Cmpd 634], the EC50 is less than 10 µM. Same read-out and setting: then `FC(F)Cn1ncc2ncc(N3CCC4(C3)CN(c3ccnc(C(F)(F)F)c3)C4)cc21` [Cmpd 635], with less than 10 µM; and `Cc1nc(N2CC3(CCN(c4cnc5cnn(CC(F)F)c5c4)C3)C2)cc(C(F)(F)F)n1` [Cmpd 636], with less than 10 µM. With `Cc1nc(N2CC3(CCN(c4ccc5nccn5n4)C3)C2)cc(C(F)(F)F)n1` [Cmpd 637], the EC50 fell in the range of 10 to 50 µM. Compound `Cc1cn2nc(N3CCC4(CN(c5cc(C(F)(F)F)nc(C)n5)C4)C3)ccc2n1` [Cmpd 638] came in with an EC50 of 10 to 50 µM. On the same count and under the same terms, then `Cc1cc(N2CC3(CCN(c4cnc5cnn(CC(F)F)c5n4)C3)C2)nc(C)n1` [Cmpd 639], with 10 to 50 µM; and `Cc1cc(N2CC3(CCN(c4cnc5c(C)nn(CC(F)F)c5n4)C3)C2)nc(C)n1` [Cmpd 640], with 10 to 50 µM; and `Cc1cc(N2CC3(CCN(c4ncc5c(C)nn(CC(F)F)c5n4)C3)C2)nc(C)n1` [Cmpd 641], with 10 to 50 µM.

Compound `Cc1cc(N2CC3(CCN(c4ncc5cnn(CC(F)F)c5n4)C3)C2)nc(C)n1` [Cmpd 642] registered an EC50 of 10 to 50 µM. Consider `Cc1cc(N2CC3(CCN(c4ncc5cnn(C6COC6)c5n4)C3)C2)nc(C)n1` [Cmpd 643], for which the EC50 lay in the range of 10 to 50 µM. Take `Cc1cc(N2CC3(CCN(c4ncc5c(C)nn(C6COC6)c5n4)C3)C2)nc(C)n1` [Cmpd 644]: the EC50 fell in the range of 10 to 50 µM. For the compound `Cc1cc(N2CC3(CCN(c4cnc5c(C)nn(C6COC6)c5n4)C3)C2)nc(C)n1` [Cmpd 645], the EC50 was in the range of 10 to 50 µM. On the same count and under the same terms, the figure for `Cc1cc(N2CC3(CCN(c4cnc5cnn(C6COC6)c5n4)C3)C2)nc(C)n1` [Cmpd 646] is 10 to 50 µM; for `Cc1nc(N2CC3(CCN(c4ncc5cnn(C)c5n4)C3)C2)cc(C(F)(F)F)n1` [Cmpd 647] it is 10 to 50 µM; for `Cc1nc(N2CC3(CCN(c4ncc5c(C)nn(C)c5n4)C3)C2)cc(C(F)(F)F)n1` [Cmpd 648] it is less than 10 µM. Same read-out and setting: then `Cc1nc(N2CC3(CCN(c4cnc5cnn(C)c5n4)C3)C2)cc(C(F)(F)F)n1` [Cmpd 649], with 10 to 50 µM; and `Cc1nc(N2CC3(CCN(c4ncc5cnn(C(F)F)c5n4)C3)C2)cc(C(F)(F)F)n1` [Cmpd 650], with less than 10 µM.

In the case of `Cc1nc(N2CC3(CCN(c4ncc5cn(C(F)F)nc5n4)C3)C2)cc(C(F)(F)F)n1` [Cmpd 651], the EC50 lay in the range of 10 to 50 µM. Compound `Cc1ncc(N2CC3(CCN(c4cnc5cnn([C@H]6CCOC6)c5n4)C3)C2)c(C(F)(F)F)n1` [Cmpd 652] showed an EC50 greater than 100 µM. Still for that read-out and setting: the figure for `Cc1ncc(N2CC3(CCN(c4cnc5cnn([C@@H]6CCOC6)c5n4)C3)C2)c(C(F)(F)F)n1` [Cmpd 653] is greater than 100 µM; for `FC(F)(F)c1ncc(N2CC3(CCN(c4cnc5cnn([C@H]6CCOC6)c5n4)C3)C2)cn1` [Cmpd 654] it is 10 to 50 µM; for `FC(F)(F)c1ncc(N2CC3(CCN(c4cnc5cnn([C@@H]6CCOC6)c5n4)C3)C2)cn1` [Cmpd 655] it is 10 to 50 µM. For `Cc1nc(C(F)(F)F)ncc1N1CC2(CCN(c3cnc4cnn([C@H]5CCOC5)c4n3)C2)C1` [Cmpd 656], the EC50 is 50 to 100 µM. On the same count and under the same terms, then `Cc1nc(C(F)(F)F)ncc1N1CC2(CCN(c3cnc4cnn([C@@H]5CCOC5)c4n3)C2)C1` [Cmpd 657], with 10 to 50 µM; and `Cc1nc(C(F)(F)F)ncc1N1CCC2(CCN(c3ncc4c(C)nn(CC(F)(F)F)c4n3)C2)C1` (stereo not drawn) [Cmpd 658], with 10 to 50 µM.

As for `Cc1ncc(N2CCC3(CCN(c4ncc5c(C)nn(CC(F)(F)F)c5n4)C3)C2)c(C(F)(F)F)n1` (stereo not drawn) [Cmpd 659], the EC50 was 10 to 50 µM. Still for that read-out and setting: then `FC(F)(F)c1ccc(N2CC3(CCN(c4cnc5cnn(C6COC6)c5n4)C3)C2)cn1` [Cmpd 660], with 10 to 50 µM.

Take `CC1(C)CC2(CCN(c3cnc4cnn(CC(F)F)c4n3)CC2)C(=O)N1c1cc(C(F)(F)F)ccn1` [Cmpd 661]: the EC50 was in the range of 10 to 50 µM. `CC1(C)N(c2cc(C(F)(F)F)ccn2)C(=O)CC12CCN(c1cnc3cnn(CC(F)F)c3n1)CC2` [Cmpd 662] had an EC50 of 10 to 50 µM. On the same count and under the same terms, then `CCC1N(c2cc(C(F)(F)F)ccn2)C(=O)CC12CCN(c1cnc3cnn(CC(F)F)c3n1)CC2` (stereo not drawn) [Cmpd 663], with 10 to 50 µM; and `O=C1N(c2nc(C(F)(F)F)c(F)cc2F)CCC12CCN(c1cnc3cnn(CC(F)F)c3n1)CC2` [Cmpd 664], with 10 to 50 µM; and `COc1cc(N2CCC3(CCN(c4cnc5cnn(CC(F)F)c5n4)CC3)C2=O)nc(C(F)(F)F)c1` [Cmpd 665], with greater than 100 µM. For the compound `Cn1c(N2CCC3(CCN(c4cnc5cnn(CC(F)F)c5n4)CC3)C2=O)cc(=O)cc1C(F)(F)F` [Cmpd 666], the EC50 is less than 10 µM.

In the case of `O=C1CC2(CCN1c1cnc3cnn(CC(F)F)c3n1)CN(c1cccc(C(F)(F)F)n1)C2` [Cmpd 667], the EC50 was 50 to 100 µM. On the same count and under the same terms, the figure for `CC1CC2(CCN(c3cccc(C(F)(F)F)n3)C2=O)CCN1c1cnc2cnn(CC(F)F)c2n1` (stereo not drawn) [Cmpd 668] is less than 10 µM.
